For test [1], the target named is T1, Electric eel AChE (Type-VI-S, EC 3.1.1.7) (Electrophorus electricus, UniProt O42275).
T1 construct: commercial native enzyme, Sigma Type VI-S
The test is described as follows: Ellman assay, Lineweaver-Burk plot, EZ-Fit. The conditions noted are these: control without extract, 0.05 M Tris-HCl pH 8.0, RT; unreliable (printed unit nM implausible beside mM substrate). The test is classed as biochemical. The source says:
Ellman assay, Lineweaver-Burk plot, EZ-Fit on Electric eel AChE (Type-VI-S, EC 3.1.1.7)

Test [2] concerns the target T2, horse serum BuChE (EC 3.1.1.8) (Equus caballus, UniProt P81908).
T2 construct: gene BCHE; commercial native enzyme from horse serum, Sigma
The test is described as follows: Ellman assay, Lineweaver-Burk plot, EZ-Fit. The class given is biochemical. The conditions noted are these: control without extract, 0.05 M Tris-HCl pH 8.0, RT; unreliable (printed unit nM implausible beside mM substrate). The source says: Ellman assay, Lineweaver-Burk plot, EZ-Fit on horse serum BuChE (EC 3.1.1.8)
In general terms: In Ellman's method for cholinesterases, released thiocholine reacts with DTNB.

T2 sequence (P81908 whole entry): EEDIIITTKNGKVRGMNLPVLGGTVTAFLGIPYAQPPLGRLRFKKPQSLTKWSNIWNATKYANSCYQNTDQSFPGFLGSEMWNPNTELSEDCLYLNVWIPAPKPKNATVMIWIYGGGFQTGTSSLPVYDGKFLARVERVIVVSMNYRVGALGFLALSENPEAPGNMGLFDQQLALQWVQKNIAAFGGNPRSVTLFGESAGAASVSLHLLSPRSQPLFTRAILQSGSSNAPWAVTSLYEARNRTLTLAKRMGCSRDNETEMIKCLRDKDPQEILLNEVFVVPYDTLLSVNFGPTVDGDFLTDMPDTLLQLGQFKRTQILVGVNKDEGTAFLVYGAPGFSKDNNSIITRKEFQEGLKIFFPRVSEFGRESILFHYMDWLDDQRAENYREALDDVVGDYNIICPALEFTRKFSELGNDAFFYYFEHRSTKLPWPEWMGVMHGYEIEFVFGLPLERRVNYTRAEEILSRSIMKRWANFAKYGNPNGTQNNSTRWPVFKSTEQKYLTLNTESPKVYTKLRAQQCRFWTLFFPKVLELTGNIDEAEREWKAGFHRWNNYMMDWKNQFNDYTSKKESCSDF
T1 sequence (O42275 24-633): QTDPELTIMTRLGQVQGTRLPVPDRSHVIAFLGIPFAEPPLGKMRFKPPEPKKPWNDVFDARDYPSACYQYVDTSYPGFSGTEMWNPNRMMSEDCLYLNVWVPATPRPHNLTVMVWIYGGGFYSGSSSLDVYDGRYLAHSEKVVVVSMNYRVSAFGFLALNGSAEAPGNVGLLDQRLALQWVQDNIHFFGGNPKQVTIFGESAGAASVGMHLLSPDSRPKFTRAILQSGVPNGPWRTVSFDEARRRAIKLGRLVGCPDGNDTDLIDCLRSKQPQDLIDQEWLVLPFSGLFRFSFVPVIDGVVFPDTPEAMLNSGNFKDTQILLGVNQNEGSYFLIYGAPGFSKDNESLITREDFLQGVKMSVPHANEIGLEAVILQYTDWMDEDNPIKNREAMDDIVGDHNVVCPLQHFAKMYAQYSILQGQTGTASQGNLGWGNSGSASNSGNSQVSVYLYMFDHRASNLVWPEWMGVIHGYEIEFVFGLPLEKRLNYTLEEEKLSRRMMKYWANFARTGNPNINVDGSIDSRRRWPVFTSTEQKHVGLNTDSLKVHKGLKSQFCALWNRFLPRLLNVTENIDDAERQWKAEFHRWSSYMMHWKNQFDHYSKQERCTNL

For `CC(=O)SCC[N+](C)(C)C` [acetylthiocholine iodide], in test [1], the “AChE / Control” value is reported as 0.8774 ± 0.41 nM.
For the compound `CCCC(=O)SCC[N+](C)(C)C` [butyrylthiocholine iodide], the “BuChE / Control” value in test [2] stood at 3.12 ± 0.87 nM.

Source of the values: article PMC3525188, “Assessment of Anticholinesterase Activity of Gelidiella acerosa: Implications for Its Therapeutic Potential against Alzheimer's Disease” (Evidence-based Complementary and Alternative Medicine : eCAM, 2012).
